Results from patent EP4656642A1, “ESTROGEN RECEPTOR PROTEOLYSIS TARGETING CHIMERA COMPOUND AND USE THEREOF” (GAN & LEE PHARM CO., LTD, priority 2023, dated 2024).

Experiments:
Type in all cases: cell-based
ERα [1] = target: T1, ERα (Homo sapiens, UniProt P03372); assay: Degradation of ERα in T-47D cells (immunoblotting, 4 h); set-up: host or cells: T-47D
T1 sequence (P03372 1-595): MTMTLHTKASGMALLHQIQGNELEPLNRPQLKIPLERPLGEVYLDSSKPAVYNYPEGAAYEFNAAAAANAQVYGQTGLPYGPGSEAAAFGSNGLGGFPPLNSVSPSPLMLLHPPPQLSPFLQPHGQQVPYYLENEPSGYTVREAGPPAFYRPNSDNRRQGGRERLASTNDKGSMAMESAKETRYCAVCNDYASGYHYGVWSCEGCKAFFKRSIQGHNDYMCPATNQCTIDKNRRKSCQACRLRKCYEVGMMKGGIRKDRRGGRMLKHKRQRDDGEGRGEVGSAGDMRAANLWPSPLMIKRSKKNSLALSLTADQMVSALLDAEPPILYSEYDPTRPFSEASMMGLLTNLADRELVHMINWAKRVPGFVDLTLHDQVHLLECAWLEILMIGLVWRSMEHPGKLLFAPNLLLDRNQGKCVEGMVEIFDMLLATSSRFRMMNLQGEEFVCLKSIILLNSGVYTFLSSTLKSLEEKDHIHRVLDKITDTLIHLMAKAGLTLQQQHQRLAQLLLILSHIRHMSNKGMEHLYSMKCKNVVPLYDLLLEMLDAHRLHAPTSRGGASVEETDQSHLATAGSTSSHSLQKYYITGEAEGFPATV
Procedure, shortened: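 ERα protein levels were assessed by immunoblot of RIPA lysates (with protease inhibitor) after 4 h exposure at 37°C. Compound was added in DMSO to T-47D cells at final concentrations of 0.15-1000 nM.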

MCF-7 cells = assay: Inhibition of cell proliferation of MCF-7 cells (CCK-8, 9 days); conditions: treated for 9 days, CCK-8 kit (Table 6)
Procedure, shortened: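 Read-out was CCK-8 viability after 9-day continuous exposure (37°C, 5% CO2) of MCF-7 cells plated at 800/well in 10% FBS DMEM across several compound concentrations. Values are proliferation IC50s.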

ERα [2] = target: T1, ERα; assay: Degradation of ERα in MCF-7 cells (immunoblotting, 4 h)
Procedure, shortened: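 Degradation rate reflects ERα band intensity, corrected to an internal reference protein, relative to control. Values come from Western blotting of lysates from MCF-7 cells exposed 4 h at 37°C to compounds at final concentrations of 0.15-1000nM.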

| Compound | Degradation rate (%) of ERα in T-47D cells (ERα [1]; 1nM compound) [%] | Degradation rate (%) of ERα in T-47D cells (ERα [1]; 10nM compound) [%] | IC50 (MCF-7 cells) [nM] | Degradation rate (%) of ERα in MCF-7 cells (ERα [2]; 1nM compound) [%] | Degradation rate (%) of ERα in MCF-7 cells (ERα [2]; 10nM compound) [%] |
| --- | --- | --- | --- | --- | --- |
| C[C@@H]1Cc2c(ccc3[nH]ncc23)C(c2ccc(N3CCC4(CC3)CC(N3CC[C@@H](N5CCC6(CC5)COc5c6ccc6c5CN(C5CCC(=O)NC5=O)C6=O)[C@@H](F)C3)C4)cn2)N1CC(F)(F)F (some centres unmarked) [H58] | 53 | 84 | 2320 | 50 | 70 |
| O=C1CCC(N2Cc3c(ccc4c3OCC43CCN(CC(=O)N(CC4CC4)C4CC5(CCN(c6ccc([C@@H]7c8ccc(O)cc8CC[C@@H]7c7ccccc7)cc6)CC5)C4)CC3)C2=O)C(=O)N1 (some centres unmarked) [H54] | 24 | 60 | 260 | 11 | 44 |
| O=C1CCC(N2Cc3cc4c(cc3C2=O)OC2(CC4)CN(C(=O)CN3CCC4(CC3)CCN(c3ccc([C@@H]5c6ccc(O)cc6CC[C@@H]5c5ccccc5)cc3)CC4)C2)C(=O)N1 (some centres unmarked) [A70] | 40 | 75 | 41.9 | 18 | 71 |
| O=C1CCC(N2Cc3c(ccc4c3OCC43CCN(C(=O)C4CCN(CC5(F)CCN(c6ccc([C@@H]7c8ccc(O)cc8CC[C@@H]7c7ccccc7)cc6)CC5)CC4)CC3)C2=O)C(=O)N1 (some centres unmarked) [E1] | 57 | 82 | 12.6 | 39 | 75 |
| O=C1CCC(N2Cc3c(ccc4c3OCC43CCN(C4CCN(C(=O)C5CCC6(CC5)CCN(c5ccc([C@@H]7c8ccc(O)cc8CC[C@@H]7c7ccccc7)cc5)CC6)CC4)CC3)C2=O)C(=O)N1 (some centres unmarked) [B18] | 54 | 79 | 15.6 | 36 | 64 |
| O=C1CCC(N2Cc3c(ccc4c3OCC43CCN(C4CC5CC4CN5C(=O)C4CCN(c5ccc([C@@H]6c7ccc(O)cc7CC[C@@H]6c6ccccc6)cc5)CC4)CC3)C2=O)C(=O)N1 (some centres unmarked) [D2] | 61 | 68 | 3620 | 31 | 29 |
| O=C1CCC(N2Cc3c(ccc4c3OCC43CCN(C(=O)C4CCC5(CC4)CN(c4ccc([C@@H]6c7ccc(O)cc7CC[C@@H]6c6ccccc6)cc4)C5)CC3)C2=O)C(=O)N1 (some centres unmarked) [A83] | 40 | 62 | 39 | 23 | 46 |
| O=C1CCC(N2Cc3c(ccc4c3OCC43CCN(C[C@H]4CC[C@@H](C#Cc5ccc([C@@H]6c7ccc(O)cc7CC[C@@H]6c6ccccc6)cc5)CC4)CC3)C2=O)C(=O)N1 (some centres unmarked) [H53] | 5 | 35 | 41.9 | 10 | 14 |
| O=C1CCC(N2Cc3c(ccc4c3OCC43CCN(C(=O)C45CCC(CN6CCN(c7ccc([C@@H]8c9ccc(O)cc9CC[C@@H]8c8ccccc8)cc7)CC6)(CC4)CC5)CC3)C2=O)C(=O)N1 (some centres unmarked) [G23] | 28 | 62 | 445 | 1 | 43 |
| O=C1CCC(N2Cc3c(ccc4c3OCC43CCN(C4CCN(CC5CCN(c6ccc([C@@H]7c8ccc(O)cc8CC[C@@H]7c7ccccc7)cc6)CC5)CC4)CC3)C2=O)C(=O)N1 (some centres unmarked) [G1] | 22 | 53 | 4.13 | 25 | 35 |
| O=C1CCC(N2Cc3cc4c(cc3C2=O)OC2(CC4)CN(C3CCC(N4CCN(c5ccc([C@@H]6c7ccc(O)cc7CC[C@@H]6c6ccccc6)cc5)CC4)CC3)C2)C(=O)N1 (some centres unmarked) [B16] | 24 | 60 | 740 | -36 | 16 |
| C[C@@H]1Cc2cc(O)ccc2C(c2c(F)cc(N3CCC(N4CCC(C(=O)N5CCC6(CC5)COc5c6ccc6c5CN(C5CCC(=O)NC5=O)C6=O)CC4)CC3)cc2F)N1CC(F)F (some centres unmarked) [F9] | 42 | 38 | 4360 | 46 | 45 |

Now from value to compound:

| Degradation rate (%) of ERα in T-47D cells (ERα [1]; 1nM compound) [%] | Degradation rate (%) of ERα in T-47D cells (ERα [1]; 10nM compound) [%] | IC50 (MCF-7 cells) [nM] | Degradation rate (%) of ERα in MCF-7 cells (ERα [2]; 1nM compound) [%] | Degradation rate (%) of ERα in MCF-7 cells (ERα [2]; 10nM compound) [%] | Compound |
| --- | --- | --- | --- | --- | --- |
| 18 | 60 | 30 | 3 | 44 | O=C1CCC(N2Cc3c(ccc4c3OCC43CCN(C4CC5(C4)CN(C4CCN(c6ccc([C@@H]7c8ccc(O)cc8CC[C@@H]7c7ccccc7)cc6)CC4)C5)CC3)C2=O)C(=O)N1 (some centres unmarked) [K12] |
| 46 | 79 | 19.5 | 43 | 66 | CN(C)C(=O)[C@@H]1CC(N2CCC3(CC2)COc2c3ccc3c2CN(C2CCC(=O)NC2=O)C3=O)CCN1C(=O)C1CCN(c2ccc([C@@H]3c4ccc(O)cc4CC[C@@H]3c3ccccc3)cc2)CC1 (some centres unmarked) [K29] |
| 60 | 72 | 32.8 | 46 | 64 | N#CC1(C(=O)N2CCC(N3CCC4(CC3)COc3c4ccc4c3CN(C3CCC(=O)NC3=O)C4=O)CC2)CCN(c2ccc([C@@H]3c4ccc(O)cc4CC[C@@H]3c3ccccc3)cc2)CC1 (some centres unmarked) [K35] |
| 42 | 79 | 12.6 | 43 | 80 | CC1CC(N2CCC3(CC2)COc2c3ccc3c2CN(C2CCC(=O)NC2=O)C3=O)CCN1C1CC2(CCN(c3ccc(C4c5ccc(O)cc5CCC4c4ccccc4)cc3)CC2)C1 (centres unmarked) [K18] |
| 74 | 89 | 80.2 | 57 | 80 | O=C1CCC(N2Cc3c(ccc4c3OCC43CCN(C(=O)CN4CCC(OC5CCN(c6ccc([C@@H]7c8ccc(O)cc8CC[C@@H]7c7ccccc7)cc6)CC5)CC4)CC3)C2=O)C(=O)N1 (some centres unmarked) [K47] |
| 46 | 81 | 4.63 | 40 | 78 | O=C1CCC(N2Cc3c(ccc4c3OCC43CCN(C4CCN(CC5CCN(c6ccc([C@@H]7c8ccc(O)cc8CC[C@@H]7c7ccccc7)cc6)CC5)CC4F)CC3)C2=O)C(=O)N1 (some centres unmarked) [J5] |
| 37 | 67 | 303000 | 21 | 41 | O=C1CCC(N2Cc3c(ccc4c3OCC43CCN(c4ccc(C(=O)N5CCN(c6ccc([C@@H]7c8ccc(O)cc8CC[C@@H]7c7ccccc7)cc6)CC5)cn4)CC3)C2=O)C(=O)N1 (some centres unmarked) [J2] |
| 47 | 80 | 9210 | 20 | 42 | O=C1CCC(N2Cc3c(ccc4c3OCC43CCN(C(=O)[C@H]4C[C@H](OC5CCN(c6ccc([C@@H]7c8ccc(O)cc8CC[C@@H]7c7ccccc7)cc6)CC5)C4)CC3)C2=O)C(=O)N1 (some centres unmarked) [K48] |
| 42 | 63 | 8.23 | 34 | 49 | O=C1CCC(N2Cc3c(ccc4c3OCC43CCN(c4ccc(C(=O)N5CCN(c6ccc([C@@H]7c8ccc(O)cc8CC[C@@H]7c7ccccc7)cc6)CC5)nc4)CC3)C2=O)C(=O)N1 (some centres unmarked) [J3] |
| 28 | 41 | 2190 | -12 | 6 | O=C1CCC(N2Cc3c(ccc4c3OC3(CC4)CCN(C4CCC5(CC4)CCN(c4ccc([C@@H]6c7ccc(O)cc7CC[C@@H]6c6ccccc6)cc4)CC5)CC3)C2=O)C(=O)N1 (some centres unmarked) [L20] |
